Source: patent US6573271B2, “Method of preventing proliferation of retinal pigment epithelium by retinoic acid receptor agonists” (John Hopkins University School of Medicine, priority 1995, dated 2003)

Key:
RPE cells = assay: RPE cell morphology after 10 days in retinoid; format: cell-based, human; conditions: 1 μm, 5% serum, on plastic
[1] = system: traction retinal detachment in rabbits; assay: Traction retinal detachment in rabbits after human dermal fibroblasts, subconjunctival lipid microvesicles; format: in vivo, rabbit; conditions: human dermal fibroblasts
rabbit model of PVR [2] = conditions: 2 to 20 μg/ml SiO, 8 weeks; untreated controls 100%; cited from earlier work
rabbit model of PVR [3] = conditions: about 100 μg in biodegradable microspheres, vitreous cavity; cited from earlier work
[4] = system: traction retinal detachment in rabbits; assay: Traction retinal detachment in rabbits after human dermal fibroblasts, subconjunctival injection
[5] = system: traction retinal detachment in rabbits; assay: Traction retinal detachment in rabbits after human RPE cells, subconjunctival injection; format: in vivo, rabbit; conditions: subconjunctival 0.3 mg once a day for five days
Description: Due to the toxicity of certain RAR agonists and because the effects of retinoids are delayed in onset and reversible, methods for sustained release of the retinoids were investigated. […] The therapeutic effect of the RAR specific agonists was greater than that of RA, which is an agonist for both RXRs and RARs. There were no signs of any toxicity to the retina.

[6] = system: traction retinal detachment in rabbits; assay: Traction retinal detachment in rabbits after human dermal fibroblasts, intravitreous lipid microvesicles
Description: In this experiment the retinoid was incorporated into lipid microvesicles utilizing standard techniques.

[7] = system: traction retinal detachment in rabbits; assay: Traction retinal detachment in rabbits after human RPE cells, intravitreal injection of 168 and 299; format: in vivo, rabbit
human RPE cells = assay: [3H]thymidine incorporation / proliferation of cultured human RPE cells; conditions: for inhibition at 0.05 µM / inhibition at 0.1 µM / inhibition at 1 µM: Homo sapiens, RPE, read-out: Percent Inhibition of [3H]thymidine incorporation in RPE cells
Description: Primary cultures of human retinal pigment epithelium (RPE) cells were established from eyes obtained from the Old Dominion Eye Bank (Richmond, Va.) or the Eye Bank of Maryland (Baltimore, Md.) using the technique described in P. A. Campochiaro, et al., Invest.
For [3H]thymidine incorporation, RPE cells at passage 3 or 4 were lightly trypsinized and plated in 16-mm wells of 24-well plates. The transfected cells were allowed to attach overnight and then the media containing 5% fetal bovine serum (FBS) were supplemented with retinoids or vehicle alone. Stock solutions (10^−3M) of retinoids were prepared in dimethylsulfoxide (DMSO) and stored as frozen aliquots until used; the highest final concentration of DMSO was 0.1% and was also used for control cultures. The media containing freshly prepared retinoids were changed every three days. At 7 or 10 days 2 μCi/ml of [^3H]thymidine (specific activity, 6.7 Ci/mM; New England Nuclear, Boston, Mass.) was added to the cultures and incorporation was measured as previously described (Leschey, supra).
The potency of retinoid agonists for inhibition of serum stimulated DNA synthesis in human RPE cells was tested. […] The cells were shifted to serum-free media containing the same concentration of retinoid and then pulsed with 10% serum for 18 hours, after which [^3H]thymidine incorporation was measured. Thymidine incorporation for cells grown in control medium was used to calculate the percent inhibition of thymidine incorporation induced by four concentrations of each retinoid (each concentration tested in triplicate) which were then used to generate each line.

[8] = system: rabbit cell injection model of PVR; assay: Rabbit cell injection model of PVR (RPE cells), intravitreous injection of retinoids; format: in vivo; conditions: for Any RD (%) / Total RD (%): 28 Days; for frequency and severity of traction retinal detachments versus vehicle: initial group, intravitreous injections of 100 μg; for frequency and severity of retinal detachments versus control: single intravitreous injection one day after RPE cell injection
Experimental: Briefly, pigmented rabbits were anesthetized with a subcutaneous injection of 5 mg/kg of xylazine and 25 mg/kg of ketamine, and the pupil of one eye was dilated with 2½% phenylephrine. Under direct observation 5×10^5 RPE cells were injected into the vitreous cavity just anterior to the optic nerve. […] .
Rabbits were examined by indirect ophthalmoscopy on days 7, 14 and 28 and traction retinal detachments were graded. […] . The localized clouds decreased in size and cleared over 2 to 3 weeks. There were no visible changes in the retina. […] .
It was felt that the hair loss and possibly the loss of appetite and death were due to systemic toxicity from drug that had gotten out of the eye. […] . None of the rabbits experienced hair loss and none died; their appetites appeared to be normal.

retinas of the rabbits = assay: Ocular toxicity after single intravitreous injection, histopathology of retina; format: in vivo, rabbit; conditions: single intravitreous injection of 100 μg, two weeks after injection
Description: The rabbits were killed two weeks after injection.

RARβ = molecular target: T1, RARβ (Homo sapiens, UniProt P10826); assay: Transactivation, ER/RAR-β hybrid receptor + ERE-CAT reporter cotransfected in HeLa cells
T1 sequence (P10826 183-417 limits assumed): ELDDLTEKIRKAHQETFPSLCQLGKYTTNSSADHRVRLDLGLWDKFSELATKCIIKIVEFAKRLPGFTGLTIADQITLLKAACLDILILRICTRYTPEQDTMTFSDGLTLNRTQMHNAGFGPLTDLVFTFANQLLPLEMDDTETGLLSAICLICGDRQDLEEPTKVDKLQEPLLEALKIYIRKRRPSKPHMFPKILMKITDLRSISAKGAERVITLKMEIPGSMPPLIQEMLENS

RARγ = molecular target: T2, RARγ (Homo sapiens, UniProt P13631); assay: Transactivation, ER/RAR-γ hybrid receptor + ERE-CAT reporter cotransfected in HeLa cells
T2 sequence (P13631 185-419 limits assumed): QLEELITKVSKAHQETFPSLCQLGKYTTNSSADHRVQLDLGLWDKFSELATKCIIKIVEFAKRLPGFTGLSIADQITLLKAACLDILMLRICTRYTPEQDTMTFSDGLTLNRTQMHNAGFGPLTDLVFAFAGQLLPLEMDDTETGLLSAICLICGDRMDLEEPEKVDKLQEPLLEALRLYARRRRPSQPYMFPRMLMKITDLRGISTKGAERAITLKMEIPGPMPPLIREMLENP

RXRα = molecular target: T3, RXRα (Homo sapiens, UniProt P19793); assay: Transactivation, ER/RXR-α hybrid receptor + ERE-CAT reporter cotransfected in HeLa cells
T3 sequence (P19793 227-458 limits assumed): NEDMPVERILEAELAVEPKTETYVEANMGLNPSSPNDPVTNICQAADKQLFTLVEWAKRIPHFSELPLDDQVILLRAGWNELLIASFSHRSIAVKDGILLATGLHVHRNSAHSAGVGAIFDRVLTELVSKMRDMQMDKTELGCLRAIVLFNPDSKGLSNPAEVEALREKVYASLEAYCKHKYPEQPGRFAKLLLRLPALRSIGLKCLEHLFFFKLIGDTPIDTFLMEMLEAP

[9] = 50 μg, single intravitreous injection
[10] = 100 μg intravitreous, two injections (day 1 and day 2 after cell injection)
[11] = 100 μg intravitreous, two injections
[12] = 100 μg, single intravitreous injection

CC1=C(/C=C/C(C)=C/C=C/C(C)=C/C(=O)O)C(C)(C)CCC1 [All trans RA, all-trans retinoic acid, reference compound]
RPE cell morphology / cell overgrowth (RPE cells): did not exhibit cell overgrowth
% Any RD [1]: 63%
% Total RD [1]: 13%
RD at 7 Days, Partial [1]: 0
RD at 7 Days, Total [1]: 0
RD at 14 Days, Partial [1]: 0
RD at 14 Days, Total [1]: 1
RD at 28 Days, Partial [1]: 4
RD at 28 Days, Total [1]: 1
rate of retinal detachment (rabbit model of PVR [2]): 44.5%
tractional retinal detachment (TRD) (rabbit model of PVR [3]): significantly decreased tractional retinal detachment
% Any RD [4]: 50%
% Total RD [4]: 0%
RD at 7 Days, Partial [4]: 0
RD at 7 Days, Total [4]: 0
RD at 14 Days, Partial [4]: 0
RD at 14 Days, Total [4]: 0
RD at 28 Days, Partial [4]: 5
RD at 28 Days, Total [4]: 0
effect on retinal detachments [4]: decreased the number of retinal detachments and slowed the rate at which they developed
% Any RD [5]: 0%
% Total RD [5]: 0%
RD at 7 Days, Partial [5]: 0
RD at 7 Days, Total [5]: 0
RD at 14 Days, Partial [5]: 0
RD at 14 Days, Total [5]: 0
RD at 28 Days, Partial [5]: 0
RD at 28 Days, Total [5]: 0
prevention of traction retinal detachment [6]: not effective
% Any RD ([6]; human dermal fibroblasts): 67%
% Total RD ([6]; human dermal fibroblasts): 67%
RD at 7 Days, Partial ([6]; human dermal fibroblasts): 1
RD at 7 Days, Total ([6]; human dermal fibroblasts): 0
RD at 14 Days, Partial ([6]; human dermal fibroblasts): 1
RD at 14 Days, Total ([6]; human dermal fibroblasts): 1
RD at 28 Days, Partial ([6]; human dermal fibroblasts): 0
RD at 28 Days, Total ([6]; human dermal fibroblasts): 4
% Any RD [7]: 100%
% Total RD [7]: 0%
RD at 7 Days, Partial [7]: 0
RD at 7 Days, Total [7]: 0
RD at 14 Days, Partial [7]: 0
RD at 14 Days, Total [7]: 0
RD at 28 Days, Partial [7]: 2
RD at 28 Days, Total [7]: 0
inhibition at 0.05 µM (human RPE cells): 52.6%
inhibition at 0.1 µM (human RPE cells): 78.3%
inhibition at 1 µM (human RPE cells): 99.4%
inhibition of [3H]thymidine incorporation in RPE cells (human RPE cells; incubation for 7 days, FIG. 1): dose-dependent inhibition
Partial RD at 14 Days (number of eyes) [8, 9]: 0
Partial RD at 28 Days (number of eyes) [8, 9]: 0
Total RD at 14 Days (number of eyes) [8, 9]: 4
Total RD at 28 Days (number of eyes) [8, 9]: 4
Any RD (%) [8, 9]: 66.7%
Total RD (%) [8, 9]: 66.7%
Partial RD at 14 Days (number of eyes) [8, 10]: 2
Partial RD at 28 Days (number of eyes) [8, 10]: 4
Total RD at 14 Days (number of eyes) [8, 10]: 0
Total RD at 28 Days (number of eyes) [8, 10]: 0
Any RD (%) [8, 11]: 44.4+ %
Total RD (%) [8, 11]: 0%
Partial RD at 14 Days (number of eyes) [8, 12]: 1
Partial RD at 28 Days (number of eyes) [8, 12]: 1
Total RD at 14 Days (number of eyes) [8, 12]: 0
Total RD at 28 Days (number of eyes) [8, 12]: 1
Any RD (%) [8, 12]: 28.6+ %
Total RD (%) [8, 12]: 14.3%
frequency and severity of traction retinal detachments versus vehicle [8]: fewer (p(0.05) and less severe traction retinal detachments
frequency and severity of retinal detachments versus control [8]: fewer (p(0.05) and less severe retinal detachments

C/C(=C\c1cc(C(=O)O)cs1)c1cc2c(cc1C)C(C)(C)CCC2(C)C [Compound 701, 2-[(E)-2-(5,6,7,8-tetrahydro-3,5,5,8,8-pentamethylnaphthaleen-2-yl)propen-1-yl]thiophene-4-carboxylic acid]
RPE cell morphology / cell overgrowth (RPE cells): failed to prevent cell overgrowth
inner retinal edema, histopathology (retinas of the rabbits): a few focal areas of inner retinal edema
retinal necrosis, histopathology (retinas of the rabbits): a few focal areas of retinal necrosis
EC50 (RARβ): 3000 nM
EC50 (RARγ): 1000 nM
inhibition at 0.05 µM (human RPE cells): 12%
inhibition at 0.1 µM (human RPE cells): 48.8%
inhibition at 1 µM (human RPE cells): 74.6%
inhibition of RPE [3H]thymidine incorporation (human RPE cells; incubation for 7 or 10 days): much less effective inhibitor
Partial RD at 14 Days (number of eyes) [8, 10]: 3
Partial RD at 28 Days (number of eyes) [8, 10]: 2
Total RD at 14 Days (number of eyes) [8, 10]: 3
Total RD at 28 Days (number of eyes) [8, 10]: 5
Any RD (%) [8, 11]: 87.5%
Total RD (%) [8, 11]: 62.5%
Partial RD at 14 Days (number of eyes) [8, 12]: 2
Partial RD at 28 Days (number of eyes) [8, 12]: 1
Total RD at 14 Days (number of eyes) [8, 12]: 2
Total RD at 28 Days (number of eyes) [8, 12]: 3
Any RD (%) [8, 12]: 80%
Total RD (%) [8, 12]: 60%
frequency and severity of traction retinal detachments versus vehicle [8]: did not differ from controls
frequency and severity of retinal detachments versus control [8]: not statistically different from controls
EC50 (RXRα): 100 nM
